Assay results from patent publication US4672059A, “N-[[5-(trifluoromethyl)-6-methoxy-1-naphthalenyl]-thioxomethyl and carbonyl]-N-methylglycinamides” (American Home Products Corporation, priority 1985, dated 1987).

Key:
[1] = test system: dulcitol accumulation in tissues of galactose-fed rats (aldose reductase inhibiting property); assay: dulcitol accumulation in lens, sciatic nerve and diaphragm of galactosemic rats; type: in vivo, male Sprague-Dawley rats
Source text: Such experiments are exemplified hereinbelow after the listing of the following general comments pertaining to these experiments:
(a) Four or more groups of six male rats, 50-70 g, Sprague-Dawley strain, were used. The first group, the control group, was fed a mixture of laboratory chow (roden Laboratory Chow, Purina) and glucose at 20% (w/w %) concentration. The untreated galactosemic group was fed a similar diet in which galactose is substituted for glucose. The third group was fed a diet prepared by mixing a given amount of the test compound with the galactose containing diet. The concentration of galactose in the diet of the treated groups was the same as that for the untreated galactosemic group.
(b) After four days, the animals were killed by decapitation. The eyeballs were removed and punctured with a razor blade; the freed lenses were rolled gently on filter paper and weighed. The sciatic nerves were dissected as completely as possible and weighed. Both tissues when frozen can be kept up to two weeks before being analyzed for dulcitol.
Only two minor reagent changes were made: (a) The rinsing mixture was an aqueous 5% (w/v) trichloroacetic acid solution and (b) the stock solution was prepared by dissolving 25 mg of dulcitol in 100 ml of an aqueous trichloroacetic acid solution. [N.B.: For each experiment the average value found in the tissue from rats fed the glucose diet was subtracted from the individual values found in the corresponding tissue in galactose-fed rats to obtain the amount of polyol accumulated.] […] In the present case the procedure of Hayman and Kinoshita was modified in that the final chromatography step was omitted in the preparation of the enzyme from bovine lens.
The figures under L, N and D represent the percentage decrease of dulcitol accumulation in the tissues of the lens, sciatic nerve and diaphragm, respectively, for treated rats as compared to untreated rats.

aldose reductase = conditions: literature; cited from earlier work
[2] = 26 mg/kg/day in diet, 4 days, vs untreated galactosemic rats

COc1ccc2c(C(=S)N(C)CC(N)=O)cccc2c1C(F)(F)F [compound 1, N-[[5-(trifluoromethyl)-6-methoxy-1-naphthalenyl]-thioxomethyl]-N-methylglycinamide]
in vivo results compared with compound No. 9 (tolrestat) ([1]; 5 mg/kg/day): comparable results
% lowering dulcitol accumulation in vivo, N (sciatic nerve) ([1]; 5 mg/kg/day in diet, 4 days, vs untreated galactosemic rats): 54%

COc1ccc2c(C(=S)N(C)CC(=O)N(C)C)cccc2c1C(F)(F)F [compound 3, 2-[[[6-Methoxy-5-(trifluoromethyl)-1-naphthalenyl]thioxomethyl]methylamino]-N,N-dimethylacetamide]
% lowering dulcitol accumulation in vivo, N (sciatic nerve) ([1]; 55 mg/kg/day in diet, 4 days, vs untreated galactosemic rats): 48%

O=C(O)CN1C(=O)c2cccc3cccc(c23)C1=O [1,3-Dioxo-1H-benz[de]isoquinoline-2(3H)-acetic acid]
aldose reductase inhibition, in words (aldose reductase): effective inhibitor of aldose reductase

COC(=N)NC(=O)CN(C)C(=S)c1cccc2c(C(F)(F)F)c(OC)ccc12 [compound 4, N--[[[[5-(trifluoromethyl)-6-methoxy-1-naphthalenyl]thioxomethyl]-N--methylamino]acetyl]carbamimidic acid, methyl ester]
% lowering dulcitol accumulation in vivo, N (sciatic nerve) [1, 2]: 62%

COc1ccc2c(C(=O)N(C)CC(N)=O)cccc2c1C(F)(F)F [compound 8, N-[[6-Methoxy-5-(trifluoromethyl)-1-naphthalenyl]carbonyl]-N-methylglycinamide]
% lowering dulcitol accumulation in vivo, D (diaphragm) ([1]; diaphragm, 28 mg/kg/day in diet, 4 days, vs untreated galactosemic rats): 42%
% lowering dulcitol accumulation in vivo, N (sciatic nerve) ([1]; 28 mg/kg/day in diet, 4 days, vs untreated galactosemic rats): 66%

O=C1NC(=O)[C@@]2(CCOc3ccc(F)cc32)N1 [sorbinil, (S)-6-Fluoro-2,3-dihydrospiro(4H-1-benzopyran-4,4'-imidazolidine)-2',5'-dione]
aldose reductase inhibition, in words (aldose reductase): aldose reductase inhibiting properties

COC(=O)NC(=O)CN(C)C(=S)c1cccc2c(C(F)(F)F)c(OC)ccc12 [compound 6, [[[5-(Trifluoromethyl)-6-methoxy-1-naphthalenyl]thioxomethyl](methylamino)acetyl]carbamic acid, Methyl Ester]
% lowering dulcitol accumulation in vivo, N (sciatic nerve) ([1]; 8.4 mg/kg/day in diet, 4 days, vs untreated galactosemic rats): 33%
% lowering dulcitol accumulation in vivo, N (sciatic nerve) [1, 2]: 93%
